In patent US10363239B2, “Method for inhibiting growth of cancer cells” (Pain Therapeutics, Inc., priority 2013, dated 2019):
Read-outs that look alike come from different tables or passages of the source.

Assays:
mu opiate receptor (MOR) = experiment: MOR agonist activity using [35S]GTPγS binding assay in striatal membranes; assay type: biochemical; conditions: for MOR agonist activity ([35S]GTPγS binding), FLNA-Binding Compound as Agonist 1 μM + BFNA: 1 μM compound + 1 μM β-funaltrexamine
Procedure, shortened: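 Striatal membranes (200 μg) were preincubated 5 min at 30 °C in HEPES pH 7.5 with 100 mM NaCl, 1 mM MgCl2 and 0.5 nM [35S]GTPγS, then 5 min more with 0.1–10 μM compound. Gαo was immunoprecipitated and bound radioactivity counted by scintillation.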

[1] = target: FLNA pentapeptide of SEQ ID NO: 1 (Bn-VAKGL) (Homo sapiens, UniProt P21333); experiment: FITC-NLX-based FLNA screening assay (inhibition of FITC-naloxone binding to Bn-VAKGL on streptavidin plates); conditions: 10 nM FITC-NLX
[2] = FLNA-binding compound 0.01 μM, read-out: Percent Binding Inhibition
[3] = FLNA-binding compound 0.1 μM, read-out: Percent Binding Inhibition
[4] = FLNA-binding compound 1 μM, read-out: Percent Binding Inhibition
[5] = Series C-2, 0.1 μM compound, relative to DAMGO
[6] = Series C-2, 0.1 μM compound, [35S]GTPγS binding to Gαo, striatal membranes
[7] = Series C-2, 1 μM compound + 1 μM β-FNA
[8] = Series C-2, 1 μM compound + β-FNA, relative to DAMGO + BFNA
[9] = Series C-2, 1 μM compound, relative to DAMGO
[10] = Series C-2, 1 μM compound, [35S]GTPγS binding to Gαo, striatal membranes
[11] = 0.1 μM compound relative to DAMGO
[12] = 1 μM compound + BFNA relative to DAMGO + BFNA
[13] = 1 μM compound relative to DAMGO
[14] = read-out: Percent Binding Inhibition, FLNA-binding compound 0.01 μM
[15] = read-out: Percent Binding Inhibition, FLNA-binding compound 0.1 μM
[16] = read-out: Percent Binding Inhibition, FLNA-binding compound 1 μM

Structure (SMILES)	inhibition at 0.01 µM [1, 2] [%]	inhibition at 0.1 µM [1, 3] [%]	inhibition at 1 µM [1, 4] [%]	MOR agonist activity ([35S]GTPγS binding), FLNA-Binding Compound as Agonist 0.1 μM (mu opiate receptor (MOR); 0.1 μM compound) [%]	% DAMGO (0.1 μM) (mu opiate receptor (MOR); [11]) [%]	MOR agonist activity ([35S]GTPγS binding), FLNA-Binding Compound as Agonist 1 μM (mu opiate receptor (MOR); 1 μM compound) [%]	MOR agonist activity ([35S]GTPγS binding), FLNA-Binding Compound as Agonist 1 μM + BFNA (mu opiate receptor (MOR)) [%]	% DAMGO + BFNA (mu opiate receptor (MOR); [12]) [%]	% DAMGO (1 μM) (mu opiate receptor (MOR); [13]) [%]	inhibition at 0.01 µM [1, 14] [%]	inhibition at 0.1 µM [1, 15] [%]	inhibition at 1 µM [1, 16] [%]	other results
COc1cc(S(=O)(=O)N2CCC3(CC2)OCCN3S(=O)(=O)c2cc(OC)c(OC)c(OC)c2)cc(OC)c1OC [Compound C0062]	39.5	49.5	48	–	–	–	–	–	–	–	–	–	% DAMGO (0.1 μM) (mu opiate receptor (MOR); Series C-1, 0.1 μM compound, relative to DAMGO): 81.9%; Concentration of FLNA-Binding Compound as Agonist 0.1 μM (mu opiate receptor (MOR); Series C-1, 0.1 μM compound, [35S]GTPγS binding to Gαo, striatal membranes): 127.8%; Concentration of FLNA-Binding Compound as Agonist 1 μM + BFNA (mu opiate receptor (MOR); Series C-1, 1 μM compound + 1 μM β-FNA): 59.8%; % DAMGO + BFNA (mu opiate receptor (MOR); Series C-1, 1 μM compound + β-FNA, relative to DAMGO + BFNA): 149.9%; % DAMGO (1 μM) (mu opiate receptor (MOR); Series C-1, 1 μM compound, relative to DAMGO): 134.7%; Concentration of FLNA-Binding Compound as Agonist 1 μM (mu opiate receptor (MOR); Series C-1, 1 μM compound, [35S]GTPγS binding to Gαo, striatal membranes): 310.5%
CCN1CCC2(CC1)OCCN2S(=O)(=O)c1ccc(C(C)=O)cc1 [Compound C0094M]	43	52.8	57.5	–	–	–	–	–	–	–	–	–	% DAMGO (0.1 μM) (mu opiate receptor (MOR); [5]): 100.2%; MOR agonist activity, percent [35S]GTPγS binding at the stated compound concentration (mu opiate receptor (MOR); [6]): 172.5%; MOR agonist activity, percent [35S]GTPγS binding at the stated compound concentration (mu opiate receptor (MOR); [7]): 115.3%; % DAMGO + BFNA (mu opiate receptor (MOR); [8]): 334.2%; % DAMGO (1 μM) (mu opiate receptor (MOR); [9]): 119.9%; MOR agonist activity, percent [35S]GTPγS binding at the stated compound concentration (mu opiate receptor (MOR); [10]): 263.5%
CC1CCC(C(C)C)C(OCC(O)CN2CCC(=O)CC2)C1 (stereo not drawn) [Compound A0060]	–	–	–	99.7	63.9	158.2	14.3	35.8	68.6	32.4	39	42	–
CC1CCC(C(C)C)C(OCC(O)CN2CCSC2)C1 (stereo not drawn) [Compound A0002]	38.7	43.7	49.9	155.6	104.1	199.4	6.5	24.5	86.6	–	–	–	–
COc1ccc(OCC(O)CN2CCc3cc4c(c(OC)c3C2)OCO4)cc1 (stereo not drawn) [Compound A0070]	–	–	–	128.6	74.7	195.3	80.3	232.8	88.9	–	–	–	Percent Binding Inhibition ([1]; FLNA-binding compound 0.01 μM): 32.9%; Percent Binding Inhibition ([1]; FLNA-binding compound 0.1 μM): 39.1%; Percent Binding Inhibition ([1]; FLNA-binding compound 1 μM): 41.7%
CC1CN(CC(O)COc2ccccc2)CC(C)O1 (stereo not drawn) [Compound A0025]	–	–	–	58.6	33.2	138.7	52.2	198.5	54.5	39	49.8	53.2	–
COc1cc(CC(=O)CC2c3c(cc4c(c3OC)OCO4)CC[N+]2(C)C)cc(OC)c1OC (stereo not drawn) [Compound B0008]	–	–	–	–	–	–	–	–	–	35.5	40.3	52.8	% DAMGO (0.1 μM) (mu opiate receptor (MOR); Series B, 0.1 μM compound, relative to DAMGO): 84.0%; MOR agonist activity, percent [35S]GTPγS binding at the stated compound concentration (mu opiate receptor (MOR); Series B, 0.1 μM compound, [35S]GTPγS binding to Gαo, striatal membranes): 148.3%; MOR agonist activity, percent [35S]GTPγS binding at the stated compound concentration (mu opiate receptor (MOR); Series B, 1 μM compound + 1 μM β-FNA): 46.0%; % DAMGO + BFNA (mu opiate receptor (MOR); Series B, 1 μM compound + β-FNA, relative to DAMGO + BFNA): 70.0%; % DAMGO (1 μM) (mu opiate receptor (MOR); Series B, 1 μM compound, relative to DAMGO): 101.9%; MOR agonist activity, percent [35S]GTPγS binding at the stated compound concentration (mu opiate receptor (MOR); Series B, 1 μM compound, [35S]GTPγS binding to Gαo, striatal membranes): 264.1%
CC(=O)c1ccc(S(=O)(=O)N2CCOC23CCNCC3)cc1 [Compound C0046]	30.8	35.7	42.2	–	–	–	–	–	–	–	–	–	% DAMGO (0.1 μM) (mu opiate receptor (MOR); [5]): 197.4%; MOR agonist activity, percent [35S]GTPγS binding at the stated compound concentration (mu opiate receptor (MOR); [6]): 286.2%; MOR agonist activity, percent [35S]GTPγS binding at the stated compound concentration (mu opiate receptor (MOR); [7]): 156.8%; % DAMGO + BFNA (mu opiate receptor (MOR); [8]): 356.4%; % DAMGO (1 μM) (mu opiate receptor (MOR); [9]): 211.5%; MOR agonist activity, percent [35S]GTPγS binding at the stated compound concentration (mu opiate receptor (MOR); [10]): 492.9%
